Holding throughout (type): cell-based
In one assay the test system is keratinocytes. The assay can be described thus: Evaluation of chemotaxis of keratinocytes (Transwell insert migration). To be noted: six hours, FIG. 1; for migration of keratinocytes compared to the negative control: 100 or 500 ng/ml chemokine in lower chamber, vs group not treated with a chemokine; for number of migrated keratinocytes relative to SDF-1α: 100 or 500 ng/ml chemokine, vs SDF-1α positive control. As for the experimental part: The keratinocytes isolated from normal skin tissue were cocultured with 3T3 feeder cells in a DMEM/F12 medium (Invitrogen™, Thermo Fisher Scientific Inc., United States) containing 10% fetal bovine serum (FBS) in a humid environment of 37° C. and 10% CO2. When the cultured cells grew by 70 to 80%, the 3T3 feeder cells were removed and only the keratinocytes were isolated using trypsin-EDTA.
To evaluate chemotaxis of keratinocytes in response to BLC (CXCL13) or TECK (CCL25), cells were cultured using a Transwell® insert (Falcon®, Corning Incorporated, United States) with an opening size of 8 μm, and the number of cells migrated passing through micropores in the insert toward the chemokine were counted. Specifically, the lower chamber of the insert was treated with a chemokine (100 or 500 ng/ml BLC (CXCL13) or 100 or 500 ng/ml TECK (CCL25)), and then cells were placed in wells of the insert in a ratio of 1×10^4 cells per well. After cell incubation in a humid environment of 37° C. and 10% CO2 for six hours, the insert membrane was stained with hematoxylin, and then the number of migrated cells were counted.

Assay [1] has as its system wound on Neoderm®-ED three-dimensional skin culture model. The assay can be described thus: Wound-healing effect (re-epithelialization) in three-dimensional skin culture model. The settings on record: 500 ng/ml chemokine, five days, FIG. 2; for length of re-epithelialization compared to the negative control: 4-mm biopsy punch wound, vs untreated group; for length of re-epithelialization relative to SDF-1α: vs SDF-1α. How it is done: A Neoderm®-ED (TEGO Science, Korea) consisting of the dermis including collagen and fibroblasts and the epidermis including keratinocytes was prepared. A wound was induced on the Neoderm®-ED using a 4-mm biopsy punch, and the wound was treated with a 500 ng/ml chemokine (BLC (CXCL13) or TECK (CCL25)) and incubated in a humid environment of 37° C. and 10% CO2 for five days. The cultured Neoderm®-ED tissue was separated from insert wells and stained with hematoxylin and eosin (H&E staining). The stained tissue was placed on a glass slide and photographed under a microscope. The obtained images were analyzed using Image-Pro™ image analysis software (Media Cybernetics, Inc., United States) to measure a length of re-epithelialization of the wound.

For assay [2], the system named is proliferation marker Ki-67. The assay can be described thus: Expression of proliferation marker Ki-67 in three-dimensional skin culture model (immunofluorescence). The settings on record: 100 ng/ml chemokine, 48 hours, Neoderm®-ED, FIGS. 3 and 5; for expression of proliferation marker Ki-67 compared to SDF-1α: vs SDF-1α; for expression of proliferation marker Ki-67 compared to the negative control: vs untreated group. How it is done: (§1) To evaluate the effects of skin regeneration and skin elasticity improvement, a Neoderm®-ED was treated with a 100 ng/ml chemokine (BLC (CXCL13) or TECK (CCL25)) and incubated in a humid environment of 37° C. and 10% CO2 for 48 hours. Then, the Neoderm®-ED was reacted with primary antibodies that bind to markers (i.e., proliferation marker Ki-67 and collagen IV) used to confirm the ability to induce skin regeneration and skin elasticity and then with secondary antibodies labeled with a fluorescent substance. Cell nuclei were stained with 4′,6-diamidino-2-phenylindole (DAPI).

A further assay concerns collagen IV. The assay can be described thus: Expression of collagen IV in three-dimensional skin culture model (immunofluorescence). The settings on record: 100 ng/ml chemokine, 48 hours, Neoderm®-ED, FIG. 4; for expression of collagen IV compared to SDF-1α: vs SDF-1α; for expression of collagen IV compared to the negative control: vs untreated group. As for the experimental part: as §1

“B lymphocyte chemoattractant [BLC (CXCL13)]”: in the assay on keratinocytes, the “migration of keratinocytes compared to the negative control” value is recorded as “increased” and the “number of migrated keratinocytes relative to SDF-1α” value was “at least five times more”. In assay [1], the “length of re-epithelialization compared to the negative control” value is “significantly greater length” and the “length of re-epithelialization relative to SDF-1α” value is “at least a three times greater length”. Also, in assay [2], the “expression of proliferation marker Ki-67 compared to SDF-1α” value is recorded as “increased more significantly” and the “expression of proliferation marker Ki-67 compared to the negative control” value is “increased”. In the assay on collagen IV, the “expression of collagen IV compared to SDF-1α” value is “increased more significantly” and the “expression of collagen IV compared to the negative control” value was “increased”.

B1: thymus-expressed chemokine (protein, UniProt O15444 24-150, looked up)
C-C motif chemokine 25: QGVFEDCCLAYHYPIGWAVLRRAWTYRIQEVSGSCNLPAAIFYLPKRHRKVCGNPKSREVQRAMKLLDARNKVFAKLHHNTQTFQAGPHAVKKLSSGNSKLSSSKFSNPISSSKRNVSLLISANSGL
As to B1, in the assay with keratinocytes, the “migration of keratinocytes compared to the negative control” value is listed as “increased” and the “number of migrated keratinocytes relative to SDF-1α” value was “at least five times more”. Moreover, in assay [1], the “length of re-epithelialization compared to the negative control” value is recorded as “significantly greater length” and the “length of re-epithelialization relative to SDF-1α” value was “at least a three times greater length”. Also, in assay [2], the “expression of proliferation marker Ki-67 compared to SDF-1α” value is “increased more significantly” and the “expression of proliferation marker Ki-67 compared to the negative control” value is “increased”. In addition, in the assay on collagen IV, the “expression of collagen IV compared to SDF-1α” value is reported as “increased more significantly” and the “expression of collagen IV compared to the negative control” value was “increased”.

(Values after patent US11026876B2, “Composition for improving skin condition comprising chemokines” (TEGO SCIENCE INC., priority 2016, dated 2021).)
